# Laboratory results reported in patent US20080213250A1, “Use of Eph Receptor Inhibitors for the Treatment of Neurodegenerative Diseases” (priority 2004, published 2008).
# Legend:
# TAP-tagged Eph kinases [1] = assay: Autophosphorylation of TAP-tagged Eph kinases in cells; assay type: cell-based; conditions: in cells (FIG. 2)
# Experimental: Cells are plated in 6-well plates in growth medium (see above). To test potential modulators, preferably inhibitors, of Eph kinase tyrosine phosphorylation, cells are starved in serum-free medium for 4 h. Under these conditions, Eph-TAP kinase is partially constitutively phosphorylated-presumably through autophosphorylation that is commonly associated with over-expression of receptor tyrosine kinases. This feature is exploited to monitor the effect of Eph kinase modulators. Test compounds are diluted (from a stock in DMSO) in serum-free medium and added to cells for indicated times. Cells are chilled on ice and washed with ice-cold PBS. They are then lysed in 300 μl lysis buffer (50 mM Tris-HCl, 1% NP-40, 0.05% SDS, 100 mM NaCl, 1.5 mM MgCl2, 2 mM EDTA, 5% glycerol, pH 7.6) for 20 min at 4 °C and cleared by centrifugation at 16,100×g in a table-top centrifuge for 20 min.
# (§1) Lysates are subsequently incubated with 20 μl pre-washed rabbit IgG beads (Sigma) for 2 h with constant agitation at 4° C. Beads are finally washed with 1 ml of lysis buffer and immobilized protein complexes are eluted by boiling in 40 μl SDS sample buffer.
# Blot membranes are probed with monoclonal antibody 4G10 (Upstate Biotechnology) or with HRP-coupled PAP antibody (see above).
# EphB2-TAP = molecular target: T1, EphB2-TAP (Homo sapiens, UniProt P29323); assay: Cellular Eph kinase tyrosine phosphorylation assay; assay type: cell-based; conditions: SK-N-BE2 neuroblastoma cells, treatment 10 min. at 37 °C, Western blot anti-phosphotyrosine
# T1 construct: The cDNAs encoding the complete ORF are obtained by RT-PCR; expressed in transfected cells; host or cells: SK-N-BE2 neuroblastoma cells (ATCC CRL-2271), retroviral transduction
# T1 sequence (P29323 19-1055): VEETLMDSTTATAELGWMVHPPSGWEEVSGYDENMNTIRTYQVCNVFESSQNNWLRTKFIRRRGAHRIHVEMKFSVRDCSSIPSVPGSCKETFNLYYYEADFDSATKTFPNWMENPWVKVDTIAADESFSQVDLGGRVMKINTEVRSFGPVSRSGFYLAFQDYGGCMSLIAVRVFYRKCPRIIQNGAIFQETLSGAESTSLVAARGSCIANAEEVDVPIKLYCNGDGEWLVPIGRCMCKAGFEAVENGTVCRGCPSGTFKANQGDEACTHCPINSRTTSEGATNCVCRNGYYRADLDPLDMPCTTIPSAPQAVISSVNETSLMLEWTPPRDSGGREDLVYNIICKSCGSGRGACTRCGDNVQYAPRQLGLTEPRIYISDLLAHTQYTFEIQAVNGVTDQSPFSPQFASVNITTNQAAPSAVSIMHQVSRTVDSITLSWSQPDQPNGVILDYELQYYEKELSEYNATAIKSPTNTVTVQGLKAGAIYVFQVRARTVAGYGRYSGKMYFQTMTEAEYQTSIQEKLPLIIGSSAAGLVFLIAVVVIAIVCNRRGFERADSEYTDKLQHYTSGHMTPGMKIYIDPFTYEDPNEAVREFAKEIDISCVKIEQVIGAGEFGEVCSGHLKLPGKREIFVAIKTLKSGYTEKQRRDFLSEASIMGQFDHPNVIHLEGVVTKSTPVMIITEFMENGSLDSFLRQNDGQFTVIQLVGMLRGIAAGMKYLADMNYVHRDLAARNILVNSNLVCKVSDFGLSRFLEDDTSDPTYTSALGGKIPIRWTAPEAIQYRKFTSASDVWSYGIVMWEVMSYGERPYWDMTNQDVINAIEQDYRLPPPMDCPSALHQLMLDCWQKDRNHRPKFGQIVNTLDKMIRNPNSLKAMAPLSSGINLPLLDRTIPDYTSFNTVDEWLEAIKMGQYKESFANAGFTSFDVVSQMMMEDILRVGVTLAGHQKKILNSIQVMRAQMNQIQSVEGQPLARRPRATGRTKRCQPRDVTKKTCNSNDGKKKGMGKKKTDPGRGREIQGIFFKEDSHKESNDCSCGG
# Experimental: (§2) Following treatment, cells were lysed in a detergent-containing buffer and TAP-tagged Eph kinases were captured with IgG beads. Bound TAP-tagged proteins were analyzed by SDS-PAGE and Western blotting, utilizing either anti-phosphotyrosine or anti-TAP antibodies for detection.
# (§3) Cells are plated in 6-well plates in growth medium (see above). […] This feature is exploited to monitor the effect of Eph kinase modulators. Test compounds are diluted (from a stock in DMSO) in serum-free medium and added to cells for indicated times. Cells are chilled on ice and washed with ice-cold PBS. They are then lysed in 300 μl lysis buffer (50 mM Tris-HCl, 1% NP-40, 0.05% SDS, 100 mM NaCl, 1.5 mM MgCl2, 2 mM EDTA, 5% glycerol, pH 7.6) for 20 min at 4 °C and cleared by centrifugation at 16,100×g in a table-top centrifuge for 20 min.
# as §1
# EphA4-TAP = molecular target: T2, EphA4-TAP (Homo sapiens, UniProt P54764); assay: Cellular Eph kinase tyrosine phosphorylation assay; assay type: cell-based; conditions: SK-N-BE2 neuroblastoma cells, treatment 10 min. at 37 °C, Western blot anti-phosphotyrosine
# T2 construct: The cDNAs encoding the complete ORF are obtained by RT-PCR; expressed in transfected cells; host or cells: SK-N-BE2 neuroblastoma cells (ATCC CRL-2271), retroviral transduction
# Experimental: as §2, §3, §1
# TAP-tagged Eph kinases [2] = assay: Autophosphorylation of TAP-tagged Eph kinases in-vitro; assay type: biochemical; conditions: data not shown
# EphA6 = molecular target: T3, EphA6 (Mus musculus, UniProt Q62413); assay: Chemical proteomics pull-down with immobilized compound, LC-MS/MS identification; conditions: maximum in any chemical proteomics experiment
# T3 sequence (Q62413 23-1035): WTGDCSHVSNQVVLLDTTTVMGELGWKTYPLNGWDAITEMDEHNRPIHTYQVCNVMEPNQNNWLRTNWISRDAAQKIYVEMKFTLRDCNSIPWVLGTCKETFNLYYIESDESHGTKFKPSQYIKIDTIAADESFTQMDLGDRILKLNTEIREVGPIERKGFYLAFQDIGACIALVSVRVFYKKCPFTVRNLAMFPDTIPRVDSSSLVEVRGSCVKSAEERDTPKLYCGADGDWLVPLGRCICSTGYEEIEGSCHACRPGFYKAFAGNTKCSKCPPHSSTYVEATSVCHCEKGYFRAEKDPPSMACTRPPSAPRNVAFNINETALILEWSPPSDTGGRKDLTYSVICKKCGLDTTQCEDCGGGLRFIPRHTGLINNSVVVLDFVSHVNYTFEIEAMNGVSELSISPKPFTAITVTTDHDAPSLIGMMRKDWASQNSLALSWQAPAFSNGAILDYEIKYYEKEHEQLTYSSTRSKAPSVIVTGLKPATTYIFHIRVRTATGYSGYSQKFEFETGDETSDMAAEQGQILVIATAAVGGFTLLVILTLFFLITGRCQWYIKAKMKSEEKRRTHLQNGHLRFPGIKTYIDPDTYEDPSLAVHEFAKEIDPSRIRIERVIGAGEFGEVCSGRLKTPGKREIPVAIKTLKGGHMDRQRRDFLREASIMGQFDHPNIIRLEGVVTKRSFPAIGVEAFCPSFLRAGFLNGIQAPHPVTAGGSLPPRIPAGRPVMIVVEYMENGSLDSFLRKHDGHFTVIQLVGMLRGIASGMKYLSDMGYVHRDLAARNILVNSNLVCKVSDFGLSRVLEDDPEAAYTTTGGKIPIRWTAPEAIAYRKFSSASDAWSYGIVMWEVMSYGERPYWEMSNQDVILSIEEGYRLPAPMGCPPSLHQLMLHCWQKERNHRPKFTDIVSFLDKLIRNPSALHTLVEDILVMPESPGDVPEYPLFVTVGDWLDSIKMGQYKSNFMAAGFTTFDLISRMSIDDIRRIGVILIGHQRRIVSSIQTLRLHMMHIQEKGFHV
# T2 sequence (P54764 20-986): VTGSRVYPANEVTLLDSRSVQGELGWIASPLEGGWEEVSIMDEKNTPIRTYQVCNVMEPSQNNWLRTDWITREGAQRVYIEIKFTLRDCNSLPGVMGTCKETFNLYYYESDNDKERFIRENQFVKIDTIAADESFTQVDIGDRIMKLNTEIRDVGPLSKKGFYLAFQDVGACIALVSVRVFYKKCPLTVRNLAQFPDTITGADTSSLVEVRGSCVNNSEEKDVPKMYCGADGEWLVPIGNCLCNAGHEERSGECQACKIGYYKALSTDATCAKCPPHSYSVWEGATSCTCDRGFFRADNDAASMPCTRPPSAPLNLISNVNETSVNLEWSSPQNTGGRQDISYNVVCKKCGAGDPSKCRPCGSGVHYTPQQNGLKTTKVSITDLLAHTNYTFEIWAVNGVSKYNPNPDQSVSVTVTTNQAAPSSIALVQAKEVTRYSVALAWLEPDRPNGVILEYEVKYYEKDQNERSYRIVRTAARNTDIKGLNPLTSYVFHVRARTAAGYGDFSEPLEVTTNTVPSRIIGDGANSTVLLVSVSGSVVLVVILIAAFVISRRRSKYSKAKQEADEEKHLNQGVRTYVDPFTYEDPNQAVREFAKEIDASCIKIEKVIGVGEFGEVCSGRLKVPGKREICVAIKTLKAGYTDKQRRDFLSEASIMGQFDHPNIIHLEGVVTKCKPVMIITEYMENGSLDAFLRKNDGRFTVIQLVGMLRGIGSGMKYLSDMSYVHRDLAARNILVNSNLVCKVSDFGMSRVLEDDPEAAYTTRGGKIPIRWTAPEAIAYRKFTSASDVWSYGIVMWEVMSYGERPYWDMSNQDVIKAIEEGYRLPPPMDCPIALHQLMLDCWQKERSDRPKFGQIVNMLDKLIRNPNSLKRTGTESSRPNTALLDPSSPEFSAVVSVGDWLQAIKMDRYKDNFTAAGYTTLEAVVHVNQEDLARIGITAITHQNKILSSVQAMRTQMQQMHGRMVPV
"maximal number of non-redundant peptides identified, EphA6 (EphA6)",SMILES,inhibition of autophosphorylation of TAP-tagged Eph kinases in cells (TAP-tagged Eph kinases [1]),tyrosine phosphorylation of EphB2-TAP (EphB2-TAP),tyrosine phosphorylation of EphA4-TAP (EphA4-TAP),inhibition of autophosphorylation of TAP-tagged Eph kinases in-vitro (TAP-tagged Eph kinases [2])
,Cc1ccc(NC(=O)c2ccc(CN3CCN(C)CC3)cc2)cc1Nc1nccc(-c2cccnc2)n1 [Gleevac],potent inhibitors,inhibits tyrosine phosphorylation of Eph kinases in a concentration-dependent manner,inhibits tyrosine phosphorylation of Eph kinases in a concentration-dependent manner,potent inhibitors
7,NCCCn1cc(C2=C(c3c[nH]c4ccccc34)C(=O)NC2=O)c2ccccc21 [BisIII],,,,
